Reference: patent US20050112573A1, “Method of detecting toxic substance” (priority 2001, published 2005)

System: yeast genes (level of expressed mRNA)
Test: DNA chip analysis of expressed mRNA of yeast genes after 2 h culture with a toxic chemical substance
Assay type: cell-based, Saccharomyces cerevisiae S288C
Experimental: Yeast (Saccharomyces cerevtisiae S288C (α SUC2mal mel gap2 CUP1)) were cultured at 25° C. on YPD medium (yeast extract 1%, polypepton 2%, glucose 2%). One of toxic chemical substances was added to the cell at logarithmic growth phase, and the cell was further cultured for two hours. Cell was cultured without any chemical substance in the same condition, and was used as control. Concentrations of the chemical substances were defined to inhibit the growth of the yeast but not lead to death.
After the completion of cultivation, the culture was centrifuged to collect the cells. To the cells, sodium acetate buffer (50 mM sodium acetate, 10 mM EDTA, 1% SDS) was added, and the mixture was shaken at 65° C. for five minutes, followed by returning to room temperature, and obtaining the supernatant, which procedure was repeated two times. To the supernatant, ½ amount of a solution of phenol/chloroform was added, and the mixture was centrifuged to give a supernatant, which was added with an equal amount of chloroform, and the mixture was centrifuged to give a supernatant. To the supernatant, an equal amount of isopropanol containing 0.3 M sodium acetate was added, and the mixture was allowed to stand at room temperature for 30 minutes, after which the mixture was centrifuged to give a sediment of the whole RNAs. Seventy % ethanol was added to the sediment, and the mixture was again centrifuged to give a sediment, which was then dried and dissolved in water. mRNA was isolated from the whole RNAs as followings. In view of the fact that a poly A chain is attached to the 3′ terminus of mRNA, a polynucleotide having a poly T structure which was immobilized on the surface of latex beads was used to trap the mRNA, and then the mRNA was washed and eluted with spine column (Oligotex-dT30<Super>mRNA Purification Kit, Takara). Reverse transcription of the mRNA was conducted with a reverse transcriptase (Super Script II Reverse Transcriptase; catalogue No. 18064-014, GibcoBRL) using fluorescence-labeled nucleotides to give cDNAs that were introduced with Cy3-dUTP or Cy5-dUTP during the reverse transcription.
The labeled cDNAs were dissolved in TE buffer (10 mM Tris-HCl/1 mM EDTA, pH8.0), and the solution was dropped on the DNA chip containing the whole genes of yeast (DNA Chip Research Inc. Japan) so that the cDNAs were hybridized on the DNA chip at 65° C. for over 12 hours. The fluoresces intensity of the DNA chip was read with a scanner, and the ratio relative to the fluorescence intensity resulting from the absence of chemical substance was estimated as the following, which is shown in Tables 1 to 9: [formula]
In the Tables, “Intensity” indicated in the rightmost column is a value of the level of expressed mRNA of each gene in control cells as divided by the average level of the expressions of the whole genes.

Structure (SMILES): S=C([S-])NCCNC(=S)[S-].[Zn+2] [(11), zinc N,N′-ethylenebis(dithiocarbamate)]
- The level of expressed mRNA in the presence of chemical substance/absence: YDR128W (gene YDR128W): 0.3
- The level of expressed mRNA in the presence of chemical substance/absence: YDR133C (gene YDR133C): 1.3
- The level of expressed mRNA in the presence of chemical substance/absence: YDR140W (gene YDR140W): 1.7
- The level of expressed mRNA in the presence of chemical substance/absence: YDR221W (gene YDR221W): 0.7
- The level of expressed mRNA in the presence of chemical substance/absence: YDR250C (gene YDR250C): 0.6
- The level of expressed mRNA in the presence of chemical substance/absence: YDR271C (gene YDR271C): 0.6
- The level of expressed mRNA in the presence of chemical substance/absence: YDR278C (gene YDR278C): 0.4
- The level of expressed mRNA in the presence of chemical substance/absence: YDR281C (gene YDR281C): 0.8
- The level of expressed mRNA in the presence of chemical substance/absence: YDR316W (gene YDR316W): 1.3
- The level of expressed mRNA in the presence of chemical substance/absence: YDR338C (gene YDR338C): 1.9
- The level of expressed mRNA in the presence of chemical substance/absence: YDR366C (gene YDR366C): 1.7
- level of expressed mRNA in the presence of chemical substance/in its absence (gene YDR380W): 0.4
- level of expressed mRNA in the presence of chemical substance/in its absence (gene YDR410C): 1.6
- The level of expressed mRNA in the presence of chemical substance/absence: YDR421W (gene YDR421W): 1.0
- The level of expressed mRNA in the presence of chemical substance/absence: YDR425W (gene YDR425W): 0.9
- The level of expressed mRNA in the presence of chemical substance/absence: YDR485C (gene YDR485C): 0.9
- level of expressed mRNA in the presence of chemical substance/in its absence (gene YDR487C): 2.1
- level of expressed mRNA in the presence of chemical substance/in its absence (gene YDR502C): 1.3
- The level of expressed mRNA in the presence of chemical substance/absence: YDR504C (gene YDR504C): 1.2
- level of expressed mRNA in the presence of chemical substance/in its absence (gene YEL011W): 3.7
- level of expressed mRNA in the presence of chemical substance/in its absence (gene YEL020C): 1.3
- The level of expressed mRNA in the presence of chemical substance/absence: YEL044W (gene YEL044W): 1.6
- level of expressed mRNA in the presence of chemical substance/in its absence (gene YER026C): 0.9
- level of expressed mRNA in the presence of chemical substance/in its absence (gene YER069W): 1.5
- The level of expressed mRNA in the presence of chemical substance/absence: YER092W (gene YER092W): 0.9
- The level of expressed mRNA in the presence of chemical substance/absence: YER182W (gene YER182W): 1.5
- The level of expressed mRNA in the presence of chemical substance/absence: YFL042C (gene YFL042C): 5.4
- level of expressed mRNA in the presence of chemical substance/in its absence (gene YFR015C): 3.9
- The level of expressed mRNA in the presence of chemical substance/absence: YFR026C (gene YFR026C): 0.8
- The level of expressed mRNA in the presence of chemical substance/absence: YFR056C (gene YFR056C): 1.3
- level of expressed mRNA in the presence of chemical substance/in its absence (gene YGL001C): 1.6
- level of expressed mRNA in the presence of chemical substance/in its absence (gene YGL022W): 0.8
- level of expressed mRNA in the presence of chemical substance/in its absence (gene YGL039W): 1.1
- The level of expressed mRNA in the presence of chemical substance/absence: YGL041C (gene YGL041C): 0.6
- The level of expressed mRNA in the presence of chemical substance/absence: YGL045W (gene YGL045W): 1.2
- The level of expressed mRNA in the presence of chemical substance/absence: YGL057C (gene YGL057C): 1.3
- The level of expressed mRNA in the presence of chemical substance/absence: YGL088W (gene YGL088W): 0.8
- level of expressed mRNA in the presence of chemical substance/in its absence (gene YGL104C): 1.8
- level of expressed mRNA in the presence of chemical substance/in its absence (gene YGL126W): 1.0
- level of expressed mRNA in the presence of chemical substance/in its absence (gene YGL134W): 1.1
- level of expressed mRNA in the presence of chemical substance/in its absence (gene YGL154C): 0.9
- The level of expressed mRNA in the presence of chemical substance/absence: YGL183C (gene YGL183C): 0.8
- level of expressed mRNA in the presence of chemical substance/in its absence (gene YGL209W): 0.8
- The level of expressed mRNA in the presence of chemical substance/absence: YGL223C (gene YGL223C): 1.3
- level of expressed mRNA in the presence of chemical substance/in its absence (gene YGL253W): 1.0
- The level of expressed mRNA in the presence of chemical substance/absence: YGR038W (gene YGR038W): 1.4
- level of expressed mRNA in the presence of chemical substance/in its absence (gene YGR060W): 0.8
- The level of expressed mRNA in the presence of chemical substance/absence: YGR139W (gene YGR139W): 0.9
- The level of expressed mRNA in the presence of chemical substance/absence: YGR156W (gene YGR156W): 0.5
- The level of expressed mRNA in the presence of chemical substance/absence: YGR198W (gene YGR198W): 1.0
- The level of expressed mRNA in the presence of chemical substance/absence: YGR210C (gene YGR210C): 1.0
- The level of expressed mRNA in the presence of chemical substance/absence: YGR211W (gene YGR211W): 0.8
- The level of expressed mRNA in the presence of chemical substance/absence: YGR237C (gene YGR237C): 1.6
- The level of expressed mRNA in the presence of chemical substance/absence: YGR243W (gene YGR243W): 1.7
- The level of expressed mRNA in the presence of chemical substance/absence: YGR250C (gene YGR250C): 1.6
- The level of expressed mRNA in the presence of chemical substance/absence: YGR266W (gene YGR266W): 1.2
- The level of expressed mRNA in the presence of chemical substance/absence: YGR277C (gene YGR277C): 1.2
